Laboratory results published in patent publication US20200405867A1, “ORAL DOSAGE FORMS” (Sunovion Pharmaceuticals Inc., priority 2018, published 2020).
Structures can show the parent of a compound that is named as a salt. Where two headings read alike, the source gives them in different places.

Tests used:
[1] = assay type: physicochemical
Excerpt: In addition to chemical/physical stability, the formulation must remain free of microbial growth for commercially reasonable periods. Several common preservatives failed when combined with dasotraline HCl and malate buffer.

[2] = assay type: physicochemical; settings: for impurities: four weeks
Excerpt: A solution must be stable for commercially reasonable periods. […] In experimenting with buffering agents such as tartrate and citrate, precipitation of dasotraline HCl was discovered.

physchem = assay type: physicochemical
Excerpt: To make a solution, one must attain sufficient solubility to achieve efficacious levels of an active pharmaceutical ingredient (API) while avoiding precipitation.

[3] = capsule, doses of 1 to 8 mg, adult or adolescent; cited from earlier work

Row | SMILES | physical stability of solution [1] | stability of solution [1] | stability of solution ([1]; 4 weeks) | impurities ([1]; malate buffer, 5% propylene glycol, further stress beyond four weeks at 60° C.) [%] | impurities ([2]; 10 mM malate buffer, pH≤3.5, 60° C.) | impurities ([2]; higher (25 mM) malate buffer amount, pH>3, 60° C.) [%] | physical stability of solution ([2]; pH 3) | physical stability of solution ([2]; pH 3.5) | physical stability of solution ([2]; pH 5) | pH window of maximal solubility in water (physchem) | solubility (physchem; pH 2.2, aqueous buffer) [µg/mL] | solubility (physchem; pH 2.7, aqueous buffer) [µg/mL] | solubility (physchem; pH 3, aqueous buffer) [µg/mL] | solubility (physchem; pH 3.4, aqueous buffer) [µg/mL] | solubility (physchem; pH 3.9, aqueous buffer) [µg/mL] | solubility (physchem; pH 4.4, aqueous buffer) [µg/mL] | solubility (physchem; pH 4.9, aqueous buffer) [µg/mL] | abuse liability [3] | efficacy in treating ADHD [3]
1 | N[C@@H]1CC[C@@H](c2ccc(Cl)c(Cl)c2)c2ccccc21 [dasotraline HCl] | induced precipitation | stable solution under all conditions tested | effective up to four weeks at 60 °C | > 0.1 | no detectable impurities | > 0.1 | precipitation | precipitation | precipitation | 2.0-3.0 pH | 1900 | 2200 | 2100 | 1300 | 800 | 600 | 400 |  | 
2 | N[C@@H]1CC[C@@H](c2ccc(Cl)c(Cl)c2)c2ccccc21 [dasotraline, (1R,4S)-4-(3,4-dichlorophenyl)-1,2,3,4-tetrahydronaphthalen-1-amine] |  |  |  |  |  |  |  |  |  |  |  |  |  |  |  |  |  | no detectable abuse liability | effective in treating ADHD
